Where two headings read alike, the source gives them in different places.
System: Raf-1^gof intestinal tumors
Settings: for Log2 (fold) of luciferase activity relative to DMSO controls / Fold (luciferase activity relative to DMSO controls): ICCB compounds fed in vials to flies with one-day old Raf-1^gof tumors
[1] = assessed three days later, averaged from multiple wells
[2] = screen of 480 ICCB compounds in vials, compounds fed to flies with one-day old Raf-1^gof tumors, assessed three days later, esg-Gal4 luciferase
[3] = screen of 480 ICCB compounds in vials, compounds fed to flies with one-day old Raf-1^gof tumors, assessed three days later, esg-Gal4 luciferase, averaged from multiple wells
Further: test concentration or dose not given here.

Compound | Log2 (fold) of luciferase activity relative to DMSO controls (assessed three days later) | Fold (luciferase activity relative to DMSO controls) [1] [fold] | Log2 (fold) (luciferase activity, log2 of the fold difference relative to DMSO controls) [2] | Fold (luciferase activity, fold difference relative to DMSO controls) [3] | also measured
Cc1cccc(CCN2CCC(C(=O)c3ccc(NS(C)(=O)=O)cc3)CC2)n1 [E-4031] | −0.195 | 0.874 | – | – | –
C1CCC(N=C(NC23CC4CC(CC(C4)C2)C3)N2CCOCC2)CC1.Cl [U-37883A] | – | – | −0.572 | 0.673 | –
C=C1CCC(O)C/C1=C\C=C1\CCCC2(C)C1CCC2C(C)CCC(O)C(C)(C)O (stereo not shown) [24,25-DIHYDROXYVITAMIN D3] | – | – | −0.363 | 0.777 | –
Cc1ccc(N(CC2=NCCN2)c2cccc(O)c2)cc1 [PHENTOLAMINE] | – | – | −0.321 | 0.800 | –
c1ccc(C2CC2)c(OCC2=NCCN2)c1 [CIRAZOLINE] | 0.121 | 1.088 | – | – | –
CCCCC/C=C\C/C=C\CCCCCCCC(=O)OC(CO)COC(=O)CCCCCCCCCCCCCCCCC (stereo not shown) [1-STEAROYL-2-LINOLEOYL-GLYCEROL] | – | – | −0.456 | 0.729 | –
CC/C=C\C/C=C\C/C=C\CCCCCCCCCCCC(=O)O [DOCOSATRIENOIC ACID (22:3 n-3)] | −0.055 | 0.963 | – | – | –
Cc1ccc(S(=O)(=O)N[C@@H](Cc2ccccc2)C(=O)CCl)cc1 [Tosyl-Phe-CMK (TPCK)] | – | – | −0.233 | 0.851 | –
calphostin C | – | – | −0.707 | 0.613 | –
Cc1ccc(-c2nn(C(C)(C)C)c3ncnc(N)c23)cc1 [PP1] | 0.503 | 1.418 | – | – | –
O=C(O)c1cccnc1Nc1cccc(C(F)(F)F)c1 [NIFLUMIC ACID] | −0.201 | 0.870 | – | – | –
CCCCC[C@H](O)/C=C/[C@@H]1[C@H](C/C=C\CCCC(=O)O)[C@@H](O)C[C@H]1O [8-EPI-PROSTAGLANDIN F2a] | – | – | −0.657 | 0.634 | –
OCCN(CCO)c1nc(N2CCCCC2)c2nc(N(CCO)CCO)nc(N3CCCCC3)c2n1 [dipyridamole] | – | – | −0.431 | 0.742 | –
CCCCC/C=C\CC1OC1C/C=C\C/C=C\CCCC(=O)O (stereo not shown) [11,12-EPOXYEICOSATRIENOIC ACID] | −0.052 | 0.965 | – | – | –
COc1cc(/C=C(\C#N)C(N)=O)cc(CSc2nc3ccccc3s2)c1O [tyrphostin AG-825] | −0.042 | 0.972 | – | – | –
COC(=O)C1=C(C)NC(C)=C(C(=O)OC)C1c1ccccc1[N+](=O)[O-] [NIFEDIPINE] | – | – | −0.417 | 0.749 | –
CCCCCCCCCCCCC/C=C/[C@@H](O)[C@H](CO)NC(=O)CCCCCCC [C8 CERAMIDE] | – | – | −0.427 | 0.744 | –
CC(C)Cn1c(=O)n(C)c(=O)c2[nH]cnc21 [IBMX] | – | – | −0.297 | 0.814 | –
CN(C)C(=O)C(CCN1CCC(O)(c2ccc(Cl)cc2)CC1)(c1ccccc1)c1ccccc1 [LOPERAMIDE] | – | – | – | – | Fold (luciferase activity, fold difference relative to DMSO controls) (in vivo): 0.786; Log2 (fold) (luciferase activity, log2 of the fold difference relative to DMSO controls) (in vivo): −0.347
O=C1C(SCCO)=C(SCCO)C(=O)c2ccccc21 [NSC-95397] | – | – | −0.495 | 0.709 | –
N=C(N)NC(=O)c1nc(Cl)c(N)nc1N [AMILORIDE] | −0.041 | 0.972 | – | – | –
CCCCC/C=C\C/C=C\CCCCCCCC(=O)O [LINOLEIC ACID] | 0.024 | 1.017 | – | – | –
O=C(O)CCC/C=C\C[C@H]1C(=O)C[C@@H](O)[C@@H]1/C=C/[C@@H](O)CCc1ccccc1 [17-PHENYL-TRINOR-PGE2] | – | – | −0.253 | 0.839 | –

Reference: patent publication US20130096067A1, “DROSOPHILA TUMOR STEM CELL MODEL AND USES THEREOF” (priority 2011, published 2013)
